Experimental data: patent publication US9695155B2, “Herbicidal substituted pyrimidinyloxy benzene compounds” (E. I. DU PONT DE NEMOURS AND COMPANY, priority 2013, dated 2017)

What was measured:
[1] = test system: ragweed; assay: Test E postemergence; type: in vivo, Ambrosia elatior
Excerpt: Seeds of plant species selected from corn (Zea mays), soybean (Glycine max), velvetleaf (Abutilon theophrasti), lambsquarters (Chenopodium album), wild poinsettia (Euphorbia heterophylla), palmer pigweed (Amaranthus palmeri), waterhemp (common waterhemp, Amaranthus rudis), surinam grass (Brachiaria decumbens), large (Lg) crabgrass (Digitaria sanguinalis), Brazilian crabgrass (Digitaria horizontalis), fall panicum (Panicum dichotomiflorum), giant foxtail (Setaria faberii), green foxtail (Setaria viridis), goosegrass (Eleusine indica), johnsongrass (Sorghum halepense), ragweed (common ragweed, Ambrosia elatior), barnyardgrass (Echinochloa crus-galli), sandbur (southern sandbur, Cenchrus echinatus), arrowleaf sida (Sida rhombifolia), Italian ryegrass (Lolium multiflorum), dayflower (Virginia (VA) dayflower, Commelina virginica), field bindweed (Convolvulus arvensis), morningglory (Ipomoea coccinea), nightshade (eastern black nightshade, Solanum ptycanthum), kochia (Kochia scoparia), yellow nutsedge (Cyperus esculentus), cocklebur (common cocklebur, Xanthium strumarium), smartweed (ladysthumb smartweed, and hairy beggarticks (Bidens pilosa), were planted into a silt loam soil and treated preemergence with test chemicals formulated in a non-phytotoxic solvent mixture which included a surfactant.
At the same time, plants from these crop and weed species and also horseweed (Canada horseweed, Conyza canadensis), waterhemp_RES1, (ALS & Triazine resistant common waterhemp, Amaranthus rudis), and waterhemp_RES2, (ALS & HPPD resistant common waterhemp, Amaranthus rudis) were planted in pots containing Redi-Earth® planting medium (Scotts Company, 14111 Scottslawn Road, Marysville, Ohio 43041) comprising spaghnum peat moss, vermiculite, wetting agent and starter nutrients were treated with postemergence applications of test chemicals formulated in the same manner. Plants ranged in height from 2 to 18 cm for postemergence treatments (1- to 4-leaf stage). Treated plants and controls were maintained in a greenhouse for 14 to 21 days, after which time all species were compared to controls and visually evaluated. Plant response ratings, summarized in Table E, are based on a scale of 0 to 100 where 0 is no effect and 100 is complete control. A dash (-) response means no test result.

[2] = test system: lambsquarters; assay: Test D postemergence; type: in vivo, Chenopodium album; details: Chenopodium album, post-emergence
Summary of the method: (§1)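 Species were sown in silt loam for preemergence treatment, or grown in peat-based medium to the 1–4-leaf stage (2–18 cm) for postemergence sprays. Test chemicals were formulated in a non-phytotoxic solvent mixture with surfactant. After 7–21 days in a controlled environment, plants were rated visually against controls on a 0 (no effect) to 100 (complete control) scale.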

[3] = test system: wild radish; assay: Test D preemergence; type: in vivo, Raphanus raphanistrum; details: Raphanus raphanistrum, pre-emergence
Excerpt: (§2) Seeds of plant species selected from bluegrass (annual bluegrass, Poa annua), blackgrass (Alopecurus myosuroides), canarygrass (littleseed canarygrass, Phalaris minor), chickweed (common chickweed, Stellaria media), galium (catchweed bedstraw, Galium aparine), bromegrass, downy (downy bromegrass, Bromus tectorum), field poppy (Papaver rhoeas), field violet (Viola arvensis), green foxtail (Setaria viridis), deadnettle (henbit deadnettle, Lamium amplexicaule), Italian ryegrass (Lolium multiflorum), kochia (Kochia scoparia), lambsquarters (Chenopodium album), oilseed rape (Brassica napus), pigweed (Amaranthus retroflexus), chamomile (scentless chamomile, Matricaria inodora), Russian thistle (Salsola kali), speedwell (bird's-eye speedwell, Veronica persica), spring barley (Hordeum vulgare), spring wheat (Triticum aestivum), wild buckwheat (Polygonum convolvulus), wild mustard (Sinapis arvensis), wild oat (Avena fatua), wild radish (Raphanus raphanistrum), windgrass (Apera spica-venti), winter barley (Hordeum vulgare), and winter wheat (Triticum aestivum) were planted into a silt loam soil and treated preemergence with test chemicals formulated in a non-phytotoxic solvent mixture which included a surfactant.
(§3) At the same time, these species were planted in pots containing Redi-Earth® planting medium (Scotts Company, 14111 Scottslawn Road, Marysville, Ohio 43041) comprising spaghnum peat moss, vermiculite, wetting agent and starter nutrients and treated with postemergence applications of the test chemicals formulated in the same manner. Plants ranged in height from 2 to 18 cm (1- to 4-leaf stage). Treated plants and controls were maintained in a controlled growth environment for 7 to 21 days after which time all species were compared to controls and visually evaluated. Plant response ratings, summarized in Table D, are based on a scale of 0 to 100 where 0 is no effect and 100 is complete control. A dash (-) response means no test result.

[4] = test system: oilseed rape; assay: Test D preemergence; type: in vivo, Brassica napus; details: Brassica napus, pre-emergence
Excerpt: as §2, §3

[5] = test system: windgrass; assay: Test D preemergence; type: in vivo, Apera spica-venti; details: Apera spica-venti, pre-emergence
Summary of the method: as §1

[6] = test system: bromegrass, downy; assay: Test D postemergence; type: in vivo, Bromus tectorum; details: Bromus tectorum, post-emergence, Postemergence, scale 0 to 100 (0 no effect, 100 complete control), read-out: Plant response rating, Bromegrass, Downy
Excerpt: as §2, §3

[7] = test system: Italian ryegrass; assay: Test D preemergence; type: in vivo, Lolium multiflorum; details: Lolium multiflorum, pre-emergence
Summary of the method: as §1

[8] = test system: wild mustard; assay: Test D postemergence; type: in vivo, Sinapis arvensis; details: Brassica, post-emergence
Excerpt: as §2, §3

[9] = test system: wild oat; assay: Test D postemergence; type: in vivo, Avena fatua; details: Avena fatua, post-emergence
Summary of the method: as §1

[10] = test system: winter wheat; assay: Test D preemergence; type: in vivo, Triticum aestivum; details: Triticum aestivum, pre-emergence
Summary of the method: as §1

[11] = test system: spring wheat; assay: Test D preemergence; type: in vivo, Triticum aestivum; details: Triticum aestivum, pre-emergence
Summary of the method: as §1

[12] = test system: chamomile; assay: Test D preemergence; type: in vivo, Matricaria inodora; details: Tripleurospermum inodorum, pre-emergence
Excerpt: as §2, §3

[13] = Postemergence, 31 g ai/ha, scale 0 to 100
[14] = Postemergence, 62 g ai/ha, scale 0 to 100
[15] = Postemergence, 125 g ai/ha, scale 0 to 100
[16] = postemergence, 16 g ai/ha, scale 0 to 100, 0 no effect, 100 complete control

For N#Cc1cccc(Oc2ncc(F)cn2)c1-n1cc(C(F)(F)F)cn1 [Compound 79, 3-[(5-fluoro-2-pyrimidinyl)oxy]-2-[4-(trifluoromethyl)-1H-pyrazol-1-yl]benzonitrile], the “Plant response rating, Ragweed” value [1, 13] was 40, the “Plant response rating, Ragweed” value [1, 14] was 50 and the “Plant response rating, Ragweed” value [1, 15] was 60. The “Plant response rating, Ragweed” value [1, 16] was 30.
With Clc1cnc(Oc2cccc(Cl)c2-n2cc(I)cn2)nc1 [Compound 181] the “Plant response rating, Ragweed” value [1, 13] was 25, the “Plant response rating, Ragweed” value [1, 14] was 30 and the “Plant response rating, Ragweed” value [1, 15] was 50. For the same compound, the “Plant response rating, Ragweed” value [1, 16] was 20.
N#Cc1cccc(Oc2ncc(Cl)cn2)c1-n1cc(OCC(F)(F)F)cn1 [Compound 274, 3-[(5-chloro-2-pyrimidinyl)oxy]-2-[4-(2,2,2-trifluoroethoxy)-1H-pyrazol-1-yl]benzonitrile] showed a pest or weed control at 16 g/ha ([2]; 16 g ai/ha, scale 0-100, read-out: Plant response rating, Lambsquarters) of 75%, a pest or weed control at 31 g/ha ([2]; 31 g ai/ha, scale 0 to 100 (0 no effect, 100 complete control), read-out: Plant response rating, Lambsquarters) of 80% and a pest or weed control at 62 g/ha ([2]; 62 g ai/ha, scale 0 to 100 (0 no effect, 100 complete control), read-out: Plant response rating, Lambsquarters) of 95%. For the same compound, the pest or weed control at 125 g/ha ([2]; 125 g ai/ha, scale 0 to 100 (0 no effect, 100 complete control), read-out: Plant response rating, Lambsquarters) was 95%, the pest or weed control at 16 g/ha ([3]; 16 g ai/ha, scale 0 (no effect) to 100 (complete control), read-out: Plant response rating, Radish, Wild) was 5% and the pest or weed control at 31 g/ha ([3]; 31 g ai/ha, scale 0 (no effect) to 100 (complete control), read-out: Plant response rating, Radish, Wild) was 5%. For the same compound, the pest or weed control at 125 g/ha ([3]; 125 g ai/ha, scale 0-100, read-out: Plant response rating, Radish, Wild) was 85%, the plant injury at 16 g/ha ([4]; 16 g ai/ha, scale 0 (no effect) to 100 (complete control), read-out: Plant response rating, Oilseed Rape) was 35% and the plant injury at 31 g/ha ([4]; 31 g ai/ha, scale 0-100, read-out: Plant response rating, Oilseed Rape) was 30%. For the same compound, the plant injury at 62 g/ha ([4]; 62 g ai/ha, scale 0-100, read-out: Plant response rating, Oilseed Rape) was 65%, the plant injury at 125 g/ha ([4]; 125 g ai/ha, scale 0-100, read-out: Plant response rating, Oilseed Rape) was 75% and the pest or weed control at 16 g/ha ([5]; 16 g ai/ha, scale 0 (no effect) to 100 (complete control), read-out: Plant response rating, Windgrass) was 20%. For the same compound, the pest or weed control at 31 g/ha ([5]; 31 g ai/ha, scale 0 (no effect) to 100 (complete control), read-out: Plant response rating, Windgrass) was 90%, the pest or weed control at 125 g/ha ([5]; 125 g ai/ha, scale 0-100, read-out: Plant response rating, Windgrass) was 100% and the pest or weed control at 16 g/ha ([6]; 16 g ai/ha) was 20%. For the same compound, the pest or weed control at 31 g/ha ([6]; 31 g ai/ha) was 25%, the pest or weed control at 62 g/ha ([6]; 62 g ai/ha) was 35% and the pest or weed control at 125 g/ha ([6]; 125 g ai/ha) was 40%. For the same compound, the pest or weed control at 16 g/ha ([7]; 16 g ai/ha, scale 0 (no effect) to 100 (complete control), read-out: Plant response rating, Ryegrass, Italian) was 0%, the pest or weed control at 31 g/ha ([7]; 31 g ai/ha, scale 0 (no effect) to 100 (complete control), read-out: Plant response rating, Ryegrass, Italian) was 0% and the pest or weed control at 125 g/ha ([7]; 125 g ai/ha, scale 0-100, read-out: Plant response rating, Ryegrass, Italian) was 70%. For the same compound, the pest or weed control at 16 g/ha ([8]; 16 g ai/ha, scale 0-100, read-out: Plant response rating, Mustard, Wild) was 70%, the pest or weed control at 31 g/ha ([8]; 31 g ai/ha, scale 0 to 100 (0 no effect, 100 complete control), read-out: Plant response rating, Mustard, Wild) was 75% and the pest or weed control at 62 g/ha ([8]; 62 g ai/ha, scale 0 to 100 (0 no effect, 100 complete control), read-out: Plant response rating, Mustard, Wild) was 100%. The pest or weed control at 125 g/ha ([8]; 125 g ai/ha, scale 0 to 100 (0 no effect, 100 complete control), read-out: Plant response rating, Mustard, Wild) was 100%, the pest or weed control at 16 g/ha ([9]; 16 g ai/ha, scale 0-100, read-out: Plant response rating, Oat, Wild) was 20% and the pest or weed control at 31 g/ha ([9]; 31 g ai/ha, scale 0 to 100 (0 no effect, 100 complete control), read-out: Plant response rating, Oat, Wild) was 30%. For the same compound, the pest or weed control at 62 g/ha ([9]; 62 g ai/ha, scale 0 to 100 (0 no effect, 100 complete control), read-out: Plant response rating, Oat, Wild) was 35%, the pest or weed control at 125 g/ha ([9]; 125 g ai/ha, scale 0 to 100 (0 no effect, 100 complete control), read-out: Plant response rating, Oat, Wild) was 40% and the plant injury at 16 g/ha ([10]; 16 g ai/ha, scale 0 (no effect) to 100 (complete control), read-out: Plant response rating, Wheat, Winter) was 0%. It also gave a plant injury at 31 g/ha ([10]; 31 g ai/ha, scale 0 (no effect) to 100 (complete control), read-out: Plant response rating, Wheat, Winter) of 0%, a plant injury at 125 g/ha ([10]; 125 g ai/ha, scale 0-100, read-out: Plant response rating, Wheat, Winter) of 35% and a plant injury at 16 g/ha ([11]; 16 g ai/ha, scale 0 (no effect) to 100 (complete control), read-out: Plant response rating, Wheat, Spring) of 0%. For the same compound, the plant injury at 31 g/ha ([11]; 31 g ai/ha, scale 0 (no effect) to 100 (complete control), read-out: Plant response rating, Wheat, Spring) was 0%, the plant injury at 125 g/ha ([11]; 125 g ai/ha, scale 0-100, read-out: Plant response rating, Wheat, Spring) was 55% and the pest or weed control at 16 g/ha ([12]; 16 g ai/ha, scale 0 (no effect) to 100 (complete control), read-out: Plant response rating, Chamomile) was 5%. The pest or weed control at 62 g/ha ([12]; 62 g ai/ha, scale 0-100, read-out: Plant response rating, Chamomile) was 35% and the pest or weed control at 125 g/ha ([12]; 125 g ai/ha, scale 0-100, read-out: Plant response rating, Chamomile) was 65%.
